From PMC12523303, “Multi-Fused S,N-Heterocyclic Compounds for Targeting α-Synuclein Aggregates” (Cells, 2025)
Where two headings read alike, the source gives them in different places.

What was measured:
[1] = biological target: post-mortem PD brain tissue; set-up: method as in PMID 38354298; conditions: cited from earlier work
[2] = biological target: T1, α-synuclein (α-syn) aggregates in PD brain homogenates (Homo sapiens, UniProt P37840); set-up: method as in PMID 38354298; conditions: parent ligand, value printed in Figure 2; cited from earlier work
T1 construct: Anterior cingulate cortex tissue from a Parkinson’s disease (PD) case; tissue Banner Sun Health Research Institute (Dr. Thomas Beach); host or cells: post-mortem human PD anterior cingulate cortex homogenate

[3] = biological target: [^3H]MK-6240 binding in post-mortem Alzheimer’s disease (AD) brain tissue (Homo sapiens, UniProt P10636); assay: Competition binding vs [3H]MK-6240 in post-mortem AD brain tissue
Description: (§1) We assessed the binding affinity of LMD-022 using a radioligand competition binding assay in post-mortem PD brain tissues. […] To evaluate potential off-target binding in AD brain tissues, we conducted additional binding assays using a panel of AD-related radioligands, including [^3H]PiB, [^3H]MK-6240, [^3H]Z-2340, and [^3H]PI-2620. […] Our future work will aim to optimize chemical yields of lead compounds, including LMD-022, and carry out α-syn fibril seed amplification assays or immunohistochemical co-localization with pathologic α-syn to verify target engagement as well as radiolabel lead molecules for in vivo PET imaging studies.

[4] = biological target: [^3H]PI-2620 binding in post-mortem Alzheimer’s disease (AD) brain tissue (Homo sapiens, UniProt P10636); assay: Competition binding vs [3H]PI-2620 in post-mortem AD brain tissue
Description: as §1

[5] = biological target: T2, [^3H]PiB binding in post-mortem Alzheimer’s disease (AD) brain tissue (Homo sapiens, UniProt P05067); assay: Competition binding vs [3H]PiB in post-mortem AD brain tissue
T2 construct: from tissue; host or cells: post-mortem AD brain tissue
Description: as §1

[6] = Metabolic stability in human liver microsomes; assay type: in vitro ADME
Experimental: Metabolic stability assays were conducted using pooled human liver microsomes (HLMs) to evaluate the rate of in vitro metabolic degradation of the test compound. Incubations were carried out in duplicate (n = 2) at a final compound concentration of 1 μM. The protein concentration of the microsomal suspension was adjusted to 0.5 mg/mL using phosphate buffer (100 mM, pH 7.4). Reactions were initiated by the addition of NADPH (final concentration 1 mM) and incubated at 37 °C. Aliquots were taken at four time points: 0, 5, 15, and 30 min. Each reaction was quenched with ice-cold acetonitrile containing internal standard, followed by centrifugation to pellet proteins. Supernatants were analyzed using a validated LC-MS/MS method to determine the concentration of the parent compound at each time point. […] Metabolic stability was assessed by calculating the percentage of the parent compound remaining at each time point. The elimination rate constant (k), half-life (t1/2), and intrinsic clearance (CLint) were derived from the natural log-transformed concentration vs. time data, assuming first-order kinetics.

MDR1 = biological target: T3, MDR1 (Homo sapiens, UniProt P08183); assay: Bidirectional transport in MDR1-transfected MDCK cell monolayers; assay type: in vitro ADME; conditions: dog; for recovery at 2 μM: MDCK-MDR1, MDR1-MDCK permeability assay
T3 construct: host or cells: MDCK cells
Experimental: (§2) MDR1-transfected MDCK cell monolayers, cultured for 5 days and obtained from the Netherlands Cancer Institute, were used for the in vitro bidirectional transport studies. Cells were maintained in Dulbecco’s Modified Eagle Medium (DMEM) supplemented with 10% fetal bovine serum (FBS) and 1% penicillin–streptomycin. They were subcultured every other day at a split ratio of 1:3 to 1:5. For transport experiments, cells were seeded onto polycarbonate Transwell® filter inserts (Millipore) in 24-well plates at a density of 500,000 cells per well. After 24 h, the medium was replaced, and the cells were cultured for an additional 4 days to allow tight junction formation before initiating the transport assays. Transport studies were performed in duplicate using a 2 μM concentration of test compound, in both apical-to-basolateral (A→B) and basolateral-to-apical (B→A) directions. The apparent permeability coefficient (P_app) was calculated using the following equation: Papp (cm/s) = (Vr/C0) (1/S) (dC/dt)
(§3) • P_app is the apparent permeability, • V_r is the volume of the receiver chamber, • C0 is the initial concentration in the donor chamber, • S is the surface area of the cell monolayer (0.7 cm^2; for a 24-well insert), • dC/dt is the rate of appearance of the compound in the receiver chamber.
(§4) The efflux ratio was calculated as: (1) Efflux ratio=Papp B−A/Papp A−B
(§5) Bioanalysis was carried out using LC-MS/MS.

[7] = biological target: T4, MDR1-transfected MDCK cells (Homo sapiens, UniProt P08183); assay: as above; assay type: in vitro ADME; conditions: MDR1-MDCK
T4 construct: host or cells: MDCK cells
Experimental: as §2, §3, §4, §5

[8] = biological target: [^3H]Z-2340 binding in post-mortem Alzheimer’s disease (AD) brain tissue; assay: Competition binding vs [3H]Z-2340 in post-mortem AD brain tissue; set-up: species or system human
Description: as §1

[9] = biological target: T1, α-synuclein (α-syn) aggregates in PD brain homogenates; assay: Two point screening assay (30 nM and 300 nM) vs [3H]asyn-44 in human PD brain homogenates; assay type: binding
Experimental: Screening assays for the test compounds were performed at two concentrations—30 nM and 300 nM—using unlabelled competitors in human PD brain homogenates against [^3H]asyn-44 as previously described. […] Each assay was conducted in triplicate for both concentrations to ensure reproducibility and statistical reliability.

[10] = biological target: T1, α-synuclein (α-syn) aggregates in PD brain homogenates; assay: In vitro competition (Ki) assay vs [3H]asyn-44 in PD brain homogenates; assay type: binding; conditions: 1 nM [3H]asyn-44
Experimental: Anterior cingulate cortex tissue from a Parkinson’s disease (PD) case was generously provided by Dr. Thomas Beach at the Banner Sun Health Research Institute in Arizona, USA. […] Preparation of the frozen blocks for binding assays followed previously established protocols.
The equilibrium inhibition constants (Ki) for the unlabelled compounds were measured against [^3H]asyn-44 using our previously reported procedure. For these assays, frozen aliquots of homogenized human brain tissue (stored at −80 °C) were used. Homogenates were prepared at 10 mg/mL in phosphate-buffered saline, then diluted with 50 mM Tris buffer (pH 7.0) to a working concentration of 1 mg/mL.
Unlabeled competitor compounds were initially dissolved in DMSO at 400 μM, then diluted with Tris buffer to 20 μM, resulting in a 5% DMSO concentration. A serial dilution series (ranging from 6 μM to 4 nM) was prepared in the same 5% DMSO/Tris buffer solution to maintain consistent solvent conditions throughout the assay.
To perform the binding assay, 50 μL of the appropriately diluted competitor solution was mixed with 50 μL of [^3H]asyn-44 (1 nM final concentration) and 800 μL of Tris buffer containing 20% ethanol and 0.1% bovine serum albumin (BSA). Then, 100 μL of the 1 mg/mL brain homogenate was added, bringing the final tissue concentration to 100 μg/mL. The reaction mixtures were incubated at room temperature for 60 min before filtration through Whatman GF/B glass fibre filters using a Brandel M-24R cell harvester (Gaithersburg, MD, USA). Filters were washed three times with 3 mL of Tris buffer containing 20% ethanol and 0.1% BSA.
After washing, retained radioactivity was measured using CytoScint-ES scintillation fluid following thorough vortexing. Specific binding was calculated by correcting for nonspecific binding (as described later), and the amount of bound radioligand was derived from the filter-associated radioactivity and the molar activity of the tritiated compound.

α-syn fibrils [11] = biological target: α-syn fibrils; set-up: method as in PMID 40256311; conditions: cited from earlier work
PD brain tissue = biological target: PD brain tissue; set-up: method as in PMID 40256311; conditions: cited from earlier work
DLB tissue = tested on: DLB tissue; set-up: method as in PMID 38843838; conditions: cited from earlier work
α-syn fibrils [12] = biological target: α-syn fibrils; set-up: method as in PMID 37421950; conditions: cited from earlier work

T3 sequence (P08183 whole entry): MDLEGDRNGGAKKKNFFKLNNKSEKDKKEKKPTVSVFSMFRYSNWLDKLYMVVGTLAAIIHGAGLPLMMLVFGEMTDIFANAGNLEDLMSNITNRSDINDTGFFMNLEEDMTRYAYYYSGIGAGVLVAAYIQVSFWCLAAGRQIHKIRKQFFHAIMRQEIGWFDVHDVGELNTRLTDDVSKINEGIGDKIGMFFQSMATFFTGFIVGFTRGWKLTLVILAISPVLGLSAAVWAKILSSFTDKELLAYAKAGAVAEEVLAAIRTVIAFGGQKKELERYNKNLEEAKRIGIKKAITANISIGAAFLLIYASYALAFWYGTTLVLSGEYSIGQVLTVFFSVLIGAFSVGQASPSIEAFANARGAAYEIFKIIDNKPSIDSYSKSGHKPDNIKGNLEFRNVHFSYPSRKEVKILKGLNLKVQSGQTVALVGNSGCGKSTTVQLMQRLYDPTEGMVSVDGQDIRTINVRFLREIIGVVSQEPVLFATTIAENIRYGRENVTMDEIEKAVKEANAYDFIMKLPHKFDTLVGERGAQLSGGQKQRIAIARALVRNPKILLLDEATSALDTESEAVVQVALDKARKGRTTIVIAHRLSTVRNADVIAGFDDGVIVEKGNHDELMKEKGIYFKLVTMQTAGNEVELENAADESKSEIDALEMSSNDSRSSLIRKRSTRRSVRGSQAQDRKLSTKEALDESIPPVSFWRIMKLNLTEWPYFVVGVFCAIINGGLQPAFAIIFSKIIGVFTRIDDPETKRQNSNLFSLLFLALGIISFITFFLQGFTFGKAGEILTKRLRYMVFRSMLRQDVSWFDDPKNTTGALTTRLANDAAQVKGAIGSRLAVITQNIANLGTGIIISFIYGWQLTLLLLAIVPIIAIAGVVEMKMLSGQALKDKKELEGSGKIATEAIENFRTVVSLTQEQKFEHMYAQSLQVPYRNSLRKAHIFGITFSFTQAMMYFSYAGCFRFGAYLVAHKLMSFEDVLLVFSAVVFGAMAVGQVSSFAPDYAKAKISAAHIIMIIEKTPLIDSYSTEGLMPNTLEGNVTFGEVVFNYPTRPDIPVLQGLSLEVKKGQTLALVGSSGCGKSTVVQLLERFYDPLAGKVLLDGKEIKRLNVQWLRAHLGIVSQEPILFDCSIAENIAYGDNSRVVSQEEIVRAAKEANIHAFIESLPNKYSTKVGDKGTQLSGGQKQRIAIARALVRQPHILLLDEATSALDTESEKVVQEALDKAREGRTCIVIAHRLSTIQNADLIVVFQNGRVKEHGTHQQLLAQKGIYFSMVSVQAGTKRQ
T4 sequence (P08183 whole entry): as above
[^3H]MK-6240 binding in post-mortem Alzheimer’s disease (AD) brain tissue, sequence (P10636 623-758 limits assumed): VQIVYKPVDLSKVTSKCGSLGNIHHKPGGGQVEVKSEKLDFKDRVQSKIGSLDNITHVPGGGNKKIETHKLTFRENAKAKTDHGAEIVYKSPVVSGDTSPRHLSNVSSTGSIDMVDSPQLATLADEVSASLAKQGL
[^3H]PI-2620 binding in post-mortem Alzheimer’s disease (AD) brain tissue, sequence (P10636 623-695 limits assumed): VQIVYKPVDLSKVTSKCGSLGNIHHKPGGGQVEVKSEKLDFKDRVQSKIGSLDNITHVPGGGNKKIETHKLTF
T2 sequence (P05067 672-713 limits assumed): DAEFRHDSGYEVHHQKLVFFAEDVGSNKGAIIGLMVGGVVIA

For `F[C@@H]1CCN(c2ccc(-c3ccc4sc(-c5cccnc5)cc4n3)cn2)C1` [Asyn-44], the Kd [1] is given as 1.85 nM and the Ki [2] is given as 9 nM.
With `O=C1NCc2nc(-c3cnc(N4CC[C@@H](F)C4)cn3)ccc21` [LMD-022] the Ki [3] was over 10000 nM, the Ki [4] was 2760 nM and the Ki [5] was over 10000 nM. The t1/2 ([6]; human liver microsomes (h-MR)) was 1.26 h, the “% disappearance at 5 minutes relative to time zero” value ([6]; human liver microsomes, 5 min) was 7.6% and the “% disappearance at 15 minutes relative to time zero” value ([6]; human liver microsomes, 15 min) was 17.8%. For the same compound, the “% disappearance at 30 minutes relative to time zero” value ([6]; human liver microsomes, 30 min) was 24.6%, the “Clearance Category” value ([6]; human liver microsomes, as per Cyprotex Website) was “Moderate” and the half-life at 1 μM ([6]; human, pooled human liver microsomes, pH 7.4, human liver microsomes (h-MR)) was 1.25 h. For the same compound, the remaining at 5 min, 1 μM ([6]; pooled human liver microsomes, pH 7.4, human liver microsomes, 1 μM, 5 min) was 92.4%, the remaining at 0.5 h, 1 μM ([6]; pooled human liver microsomes, pH 7.4, human liver microsomes, 1 μM, 30 min) was 75.4% and the recovery at 2 μM (MDR1; A→B, read-out: Calculated recovery, A→B direction) was 61.9%. It also gave a recovery at 2 μM (MDR1; B→A, read-out: Calculated recovery, B→A direction) of 120%, a Papp A→B at 2 μM (MDR1; MDCK-MDR1, apical-to-basolateral, 2 μM, read-out: A→B apparent permeability) of 40.6 ×10⁻⁶ cm/s and a Papp B→A at 2 μM (MDR1; MDCK-MDR1, basolateral-to-apical, 2 μM, read-out: B→A apparent permeability) of 37.6 ×10⁻⁶ cm/s. For the same compound, the efflux ratio at 2 μM (MDR1; MDR1-MDCK, read-out: Efflux Ratio (B→A/A→B)) was 0.93, the “Efflux Category” value [7] was “Not a substrate” and the “Permeability Category” value [7] was “High”. It also gave a Ki [8] of over 10000 nM, a remaining activity at 0.03 µM ([9]; 30 nM competitor) of 40% and a remaining activity at 0.3 µM ([9]; 300 nM competitor) of 15%. The Ki [10] was 16 nM.
For `[11CH3]Oc1ccc(NC(=O)c2cnc(N3CCN(c4ccccn4)CC3)nc2N)cc1` [[^11C]M503-1619], the Ki (α-syn fibrils [11]) is listed as 6.5 nM and the Kd (PD brain tissue) is listed as 1.5 nM.
For `CNc1ccc(C#C/C=C/c2nc3ccc(OCC(O)C[18F])cc3s2)cn1` (stereo not shown) [[^18F]C05-05], the IC50 (DLB tissue) is listed as 1.5 nM.
For `Cc1cc2nc(/C=C/c3ccc(O)c(Br)c3)sc2cc1N(C)CCOCC[18F]` [[^18F]F0502B], the Kd (α-syn fibrils [12]) is given as 11 nM.
